Test results taken from US12495798B2, “Nicotinamide compound and herbicidal composition comprising compound” (KOREA RESEARCH INSTITUTE OF CHEMICAL TECHNOLOGY, priority 2019, dated 2025).

Legend:
Type in all cases: in vivo
bindweed = assay: Herbicidal activity test against upland field weeds (foliar treatment test); conditions: scale 0-100; for pest or weed control at 50 g/ha: 50 g ai/ha
How it was run: (§1)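 Weeds were raised from seed or rootstocks in horticultural soil in a greenhouse (30±5° C., 14/10 h light/dark), then foliage was hand-sprayed with compound at 50 or 75 g a.i./ha in 50% acetone with 0.1% Tween-20. Control was scored visually 0–100 against untreated plants after 14 days, or 21 if needed.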

cocklebur = assay: Herbicidal activity test against upland field weeds (soil treatment test); set-up: key to Soil treatment herbicidal activity, Cocklebur: 0 (no control); 100 (complete control); conditions: scale 0 (no control) to 100 (complete control)
How it was run: (§2)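 Pre-emergence test: seeds or rootstocks were sown in fertilized sandy loam, and the next day the soil surface was sprayed with compound at 50 or 75 g a.i./ha in 50% acetone/0.1% Tween-20. Plants were grown in a greenhouse (30±5 °C, 14/10 h light/dark), then visually scored 0–100 against untreated at 14 d (21 d if needed).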

soybean = assay: Phytotoxicity test for field crops (soil treatment test); set-up: key: 0 (no harm); 9 (complete withered)
How it was run: (§3)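 Applied as a soil treatment one day after sowing, at final rates of 19˜300 g a.i./ha. Damage is graded visually (0 = no harm, 9 = complete withered) compared with untreated control, 10 and 20 days after treatment.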

corn = assay: as above; set-up: key: 0 (no harm); 9 (complete withered)
How it was run: as §3

rice = assay: as above; set-up: key: 0 (no harm); 9 (complete withered)
How it was run: as §3

wheat = assay: as above; set-up: key: 0 (no harm); 9 (complete withered)
How it was run: as §3

cotton = assay: as above; set-up: key: 0 (no harm); 9 (complete withered)
How it was run: as §3

sorghum = assay: Herbicidal activity test against upland field weeds (soil treatment test); set-up: key to Soil treatment herbicidal activity, Sorghum: 0 (no control); 100 (complete control); conditions: scale 0 (no control) to 100 (complete control)
How it was run: as §2

black nightshade = assay: Herbicidal activity test against upland field weeds (foliar treatment test); set-up: key to Foliar treatment herbicidal activity, black nightshade: 0 (no control); 100 (complete control); conditions: scale 0-100
How it was run: as §1

barnyard grass = assay: as above; set-up: key to Foliar treatment herbicidal activity, barnyard grass: 0 (no control); 100 (complete control); conditions: scale 0-100
How it was run: as §1

fall panicum [1] = assay: as above; conditions: Panicum dichotomiflorum, scale 0-100; for pest or weed control at 50 g/ha: 50 g ai/ha
How it was run: as §1

indian jointvetch = assay: as above; conditions: scale 0-100; for pest or weed control at 50 g/ha: 50 g ai/ha
How it was run: as §1

crabgrass = assay: as above; conditions: Digitaria sanguinalis, scale 0-100; for pest or weed control at 50 g/ha: 50 g ai/ha
How it was run: as §1

fall panicum [2] = assay: Herbicidal activity test against upland field weeds (soil treatment test); set-up: key to Soil treatment herbicidal activity, Fall panicum: 0 (no control); 100 (complete control); conditions: scale 0 (no control) to 100 (complete control)
How it was run: as §2

[3] = 50 g ai/ha, Soybean (10 days after treatment)
[4] = 50 g ai/ha, Soybean (20 days after treatment)
[5] = 100 g ai/ha, Soybean (10 days after treatment)
[6] = 100 g ai/ha, Soybean (20 days after treatment)
[7] = 50 g ai/ha, Corn (10 days after treatment)
[8] = 50 g ai/ha, Corn (20 days after treatment)
[9] = 100 g ai/ha, Corn (10 days after treatment)
[10] = 100 g ai/ha, Corn (20 days after treatment)
[11] = 50 g ai/ha, Rice (10 days after treatment)
[12] = 50 g ai/ha, Rice (20 days after treatment)
[13] = 100 g ai/ha, Rice (10 days after treatment)
[14] = 100 g ai/ha, Rice (20 days after treatment)
[15] = 50 g ai/ha, Wheat (10 days after treatment)
[16] = 50 g ai/ha, Wheat (20 days after treatment)
[17] = 100 g ai/ha, Wheat (10 days after treatment)
[18] = 100 g ai/ha, Wheat (20 days after treatment)
[19] = 50 g ai/ha, Cotton (10 days after treatment)
[20] = 50 g ai/ha, Cotton (20 days after treatment)
[21] = 100 g ai/ha, Cotton (10 days after treatment)
[22] = 100 g ai/ha, Cotton (20 days after treatment)

| SMILES | Soil treatment phytotoxicity, Soybean (soybean; [3]) | Soil treatment phytotoxicity, Soybean (soybean; [4]) | Soil treatment phytotoxicity, Soybean (soybean; [5]) | Soil treatment phytotoxicity, Soybean (soybean; [6]) | Soil treatment phytotoxicity, Corn (corn; [7]) | Soil treatment phytotoxicity, Corn (corn; [8]) | Soil treatment phytotoxicity, Corn (corn; [9]) | Soil treatment phytotoxicity, Corn (corn; [10]) | Soil treatment phytotoxicity, Rice (rice; [11]) | Soil treatment phytotoxicity, Rice (rice; [12]) | Soil treatment phytotoxicity, Rice (rice; [13]) | Soil treatment phytotoxicity, Rice (rice; [14]) | Soil treatment phytotoxicity, Wheat (wheat; [15]) | Soil treatment phytotoxicity, Wheat (wheat; [16]) | Soil treatment phytotoxicity, Wheat (wheat; [17]) | Soil treatment phytotoxicity, Wheat (wheat; [18]) | Soil treatment phytotoxicity, Cotton (cotton; [19]) | Soil treatment phytotoxicity, Cotton (cotton; [20]) | Soil treatment phytotoxicity, Cotton (cotton; [21]) | Soil treatment phytotoxicity, Cotton (cotton; [22]) | also measured |
| --- | --- | --- | --- | --- | --- | --- | --- | --- | --- | --- | --- | --- | --- | --- | --- | --- | --- | --- | --- | --- | --- |
| Cn1nnc(COCc2nc(C(F)(F)F)ccc2C(=O)Nc2nnnn2C)n1 [Compound No. 2-59, N-(1-methyl-1H-tetrazol-5-yl)-2-(((2-methyl-2H-tetrazol-5-yl)methoxy)methyl)-6-(trifluoromethyl)nicotinamide] | 2 | 5 | 3 | 6 | 0 | 0 | 0 | 0 | 6 | 8 | 8 | 8 | 0 | 0 | 0 | 0 | 1 | 6 | 3 | 9 | pest or weed control at 50 g/ha (bindweed): 90%; pest or weed control at 50 g/ha (cocklebur; Xanthium strumarium, 50 g ai/ha): 20%; Soil treatment herbicidal activity, Sorghum (sorghum; 50 g ai/ha): 100; Foliar treatment herbicidal activity, black nightshade (black nightshade; 50 g ai/ha): 100; Foliar treatment herbicidal activity, barnyard grass (barnyard grass; 50 g ai/ha): 100; pest or weed control at 50 g/ha (fall panicum [1]): 95%; pest or weed control at 50 g/ha (indian jointvetch): 98%; pest or weed control at 50 g/ha (crabgrass): 98%; Soil treatment herbicidal activity, Fall panicum (fall panicum [2]; 50 g ai/ha): 100 |
| CN(Cc1nnn(C)n1)c1nc(C(F)(F)F)ccc1C(=O)Nc1nnnn1C [Compound No. 2-26, 2-(methyl((2-methyl-2H-tetrazol-5-yl)methyl)amino)-N-(1-methyl-1H-tetrazol-5-yl)-6-(trifluoromethyl)nicotinamide] | 6 | 4 | 7 | 7 | 0 | 0 | 0 | 0 | 3 | 9 | 6 | 9 | 0 | 0 | 0 | 0 | 1 | 4 | 1 | 4 | pest or weed control at 75 g/ha (bindweed; 75 g ai/ha): 95%; pest or weed control at 75 g/ha (cocklebur; Xanthium strumarium, 75 g ai/ha): 98%; plant injury at 75 g/ha (sorghum; Sorghum, 75 g ai/ha): 20%; Foliar treatment herbicidal activity, black nightshade (black nightshade; 75 g ai/ha): 100; pest or weed control at 75 g/ha (barnyard grass; Echinochloa crus-galli, 75 g ai/ha): 98%; pest or weed control at 75 g/ha (fall panicum [1]; 75 g ai/ha): 70%; pest or weed control at 75 g/ha (indian jointvetch; 75 g ai/ha): 90%; pest or weed control at 75 g/ha (crabgrass; 75 g ai/ha): 95%; Soil treatment herbicidal activity, Fall panicum (fall panicum [2]; 75 g ai/ha): 100 |
| Cn1nnc(COCc2nc(C(F)(F)C(F)(F)F)ccc2C(=O)Nc2nnnn2C)n1 [Compound No. 2-81, N-(1-methyl-1H-tetrazol-5-yl)-2-(((2-methyl-2H-tetrazol-5-yl)methoxy)methyl)-6-(perfluoroethyl)nicotinamide] | 0 | 0 | 0 | 0 | 0 | 0 | 1 | 0 | 6 | 7 | 8 | 8 | 0 | 0 | 0 | 0 | 0 | 4 | 1 | 6 | pest or weed control at 50 g/ha (bindweed): 60%; Soil treatment herbicidal activity, Cocklebur (cocklebur; 50 g ai/ha): 100; plant injury at 50 g/ha (sorghum; Sorghum, 50 g ai/ha): 50%; pest or weed control at 50 g/ha (black nightshade; Solanum nigrum, 50 g ai/ha): 95%; pest or weed control at 50 g/ha (barnyard grass; Echinochloa crus-galli, 50 g ai/ha): 80%; pest or weed control at 50 g/ha (fall panicum [1]): 70%; pest or weed control at 50 g/ha (indian jointvetch): 80%; pest or weed control at 50 g/ha (crabgrass): 70%; pest or weed control at 50 g/ha (fall panicum [2]; Panicum dichotomiflorum, 50 g ai/ha): 98% |
